Measured values taken from patent US20200207759A1, “NEW PROPANAMINE DERIVATIVES FOR TREATING PAIN AND PAIN RELATED CONDITIONS” (ESTEVE PHARMACEUTICALS, S.A., priority 2017, published 2020).

How the values were obtained:
[1] = target: Human norepinephrine transporter (NET) (Homo sapiens, UniProt P23975); assay: Binding assay to human norepinephrine transporter (NET), [3H]-Nisoxetin; details: human NET enriched membranes, 5 nM [3H]-Nisoxetin; read-out: Ki (nM) NET Hum
Procedure: Binding Assay to Human Norepinephrine Transporter (NET).
Human norepinephrine transporter (NET) enriched membranes (5 μg) were incubated with 5 nM of radiolabeled [3H]-Nisoxetin in assay buffer containing 50 mM Tris-HCl, 120 mM NaCl, 5 mM KCl, pH 7.4.
NSB (non specific binding) was measured by adding 1 μM. After 60 min incubation at 4° C., binding reaction was terminated by filtering through Multiscreen GF/C (Millipore) presoaked in 0.5% polyethyleneimine in Vacuum Manifold Station, followed by 3 washes with ice-cold filtration buffer containing 50 mM Tris-HCl, 0.9% NaCl, pH 7.4. Filter plates were dried at 60° C. for 1 hour and 30 μl of scintillation cocktail were added to each well before radioactivity reading.

[2] = target: Human α2δ-1 subunit of Cav2.2 calcium channel (Homo sapiens, UniProt P54289); assay: Binding assay to human α2δ-1 subunit of Cav2.2 calcium channel, [3H]-Gabapentin; details: human α2δ-1 enriched membranes, 15 nM [3H]-Gabapentin; read-out: Ki (nM) alpha2delta Hum
Sequence of Human α2δ-1 subunit of Cav2.2 calcium channel (P54289 25-1103): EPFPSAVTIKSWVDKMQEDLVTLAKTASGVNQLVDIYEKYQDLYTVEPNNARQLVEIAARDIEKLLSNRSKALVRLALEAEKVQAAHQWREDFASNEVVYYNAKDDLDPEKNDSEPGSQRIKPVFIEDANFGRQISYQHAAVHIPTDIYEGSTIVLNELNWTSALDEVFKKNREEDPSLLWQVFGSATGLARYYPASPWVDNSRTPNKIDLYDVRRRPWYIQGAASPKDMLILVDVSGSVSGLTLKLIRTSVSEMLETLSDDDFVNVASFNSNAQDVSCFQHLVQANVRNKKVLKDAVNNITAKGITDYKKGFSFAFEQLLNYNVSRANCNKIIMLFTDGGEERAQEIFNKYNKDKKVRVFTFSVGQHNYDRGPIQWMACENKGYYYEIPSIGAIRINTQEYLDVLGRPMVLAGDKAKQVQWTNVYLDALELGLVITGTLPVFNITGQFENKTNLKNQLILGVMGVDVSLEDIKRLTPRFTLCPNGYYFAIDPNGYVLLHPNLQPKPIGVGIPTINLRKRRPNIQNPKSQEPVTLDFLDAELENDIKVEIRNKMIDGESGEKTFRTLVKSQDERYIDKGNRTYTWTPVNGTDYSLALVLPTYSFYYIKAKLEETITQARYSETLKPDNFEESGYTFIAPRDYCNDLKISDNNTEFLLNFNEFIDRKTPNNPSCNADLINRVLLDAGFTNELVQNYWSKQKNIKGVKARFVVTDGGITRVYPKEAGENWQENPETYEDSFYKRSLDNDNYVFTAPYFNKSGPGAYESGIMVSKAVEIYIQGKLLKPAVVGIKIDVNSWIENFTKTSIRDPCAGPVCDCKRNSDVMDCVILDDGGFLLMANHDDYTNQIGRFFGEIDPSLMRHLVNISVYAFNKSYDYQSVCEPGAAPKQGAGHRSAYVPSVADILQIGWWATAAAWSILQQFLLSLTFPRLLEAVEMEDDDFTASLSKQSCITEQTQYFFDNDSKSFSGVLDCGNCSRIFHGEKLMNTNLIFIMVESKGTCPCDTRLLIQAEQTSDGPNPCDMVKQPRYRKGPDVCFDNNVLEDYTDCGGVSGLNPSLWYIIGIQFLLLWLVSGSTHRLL
Procedure: Binding Assay to Human α2δ-1 Subunit of Cav2.2 Calcium Channel.
Human α2δ-1 enriched membranes (2.5 μg) were incubated with 15 nM of radiolabeled [3H]-Gabapentin in assay buffer containing Hepes-KOH 10 mM, pH 7.4.
NSB (non specific binding) was measured by adding 10 μM pregabalin. After 60 min incubation at 27° C., binding reaction was terminated by filtering through Multiscreen GF/C (Millipore) presoaked in 0.5% polyethyleneimine in Vacuum Manifold Station, followed by 3 washes with ice-cold filtration buffer containing 50 mM Tris-HCl, pH 7.4.
Filter plates were dried at 60° C. for 1 hour and 30 μl of scintillation cocktail were added to each well before radioactivity reading.
Readings were performed in a Trilux 1450 Microbeta radioactive counter (Perkin Elmer).

Sequence of Human norepinephrine transporter (NET) (P23975 whole entry): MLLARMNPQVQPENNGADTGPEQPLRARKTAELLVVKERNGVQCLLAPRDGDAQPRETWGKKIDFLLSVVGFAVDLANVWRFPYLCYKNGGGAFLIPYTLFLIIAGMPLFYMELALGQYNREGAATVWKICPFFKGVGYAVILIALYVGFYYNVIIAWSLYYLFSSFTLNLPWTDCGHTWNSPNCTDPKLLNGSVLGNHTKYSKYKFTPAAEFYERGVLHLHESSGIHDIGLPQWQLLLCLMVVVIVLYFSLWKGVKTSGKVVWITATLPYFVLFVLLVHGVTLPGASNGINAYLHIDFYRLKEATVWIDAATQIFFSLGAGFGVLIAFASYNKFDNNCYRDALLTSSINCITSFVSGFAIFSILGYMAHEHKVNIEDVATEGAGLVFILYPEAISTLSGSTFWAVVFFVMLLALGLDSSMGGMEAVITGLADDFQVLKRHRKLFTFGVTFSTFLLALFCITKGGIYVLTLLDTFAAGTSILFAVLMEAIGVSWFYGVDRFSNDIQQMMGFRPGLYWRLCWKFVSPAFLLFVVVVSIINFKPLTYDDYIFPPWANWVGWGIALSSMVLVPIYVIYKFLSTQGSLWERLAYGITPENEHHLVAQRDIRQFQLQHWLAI

Ki [1] | Ki [2] | Structure (SMILES)
< 100 nM | ≥ 3000 nM | CNCCC(c1ccsc1)N1CCc2ccccc21 (racemic) [Example 78, 3-(Indolin-1-yl)-N-methyl-3-(thiophen-3-yl)propan-1-amine]
> 1000 nM | 100 to 500 nM | CNCC[C@H](c1ccsc1)N1CC(C)(C)c2nc(C(F)(F)F)ccc21 (racemic) [Example 79, 3-(3,3-Dimethyl-5-(trifluoromethyl)-2,3-dihydro-1H-pyrrolo[3,2-b]pyridin-1-yl)-N-methyl-3-(thiophen-3-yl)propan-1-amine]
> 1000 nM | 100 to 500 nM | CNCCC(c1ccsc1)N1CC(C)(C)c2ncc(Cl)cc21 (racemic) [Example 80, 3-(6-Chloro-3,3-dimethyl-2,3-dihydro-1H-pyrrolo[3,2-b]pyridin-1-yl)-N-methyl-3-(thiophen-3-yl)propan-1-amine]
> 1000 nM | < 100 nM | CNCCC(c1cccs1)N1CC(C)(C)c2ncc(C)cc21 (racemic) [Example 81, N-methyl-3-(thiophen-2-yl)-3-(3,3,6-trimethyl-2,3-dihydro-1H-pyrrolo[3,2-b]pyridin-1-yl)propan-1-amine]
> 1000 nM | 500 to 3000 nM | CCC1(CC)CN(C(CCNC)c2ccsc2)c2cccnc21 (racemic) [Example 86, 3-(3,3-Diethyl-2,3-dihydro-1H-pyrrolo[3,2-b]pyridin-1-yl)-N-methyl-3-(thiophen-3-yl)propan-1-amine]
> 1000 nM | ≥ 3000 nM | CNCC[C@@H](c1cccs1)N1c2ccccc2C[C@@H]1C (racemic) [Example 119, (S/R)—N-methyl-3-((S/R)-2-methylindolin-1-yl)-3-(thiophen-2-yl)propan-1-amine]
< 100 nM | 500 to 3000 nM | CNCCC(c1cccs1)N1CCc2ccccc21 (centres unmarked) [Example 1, 3-(Indolin-1-yl)-N-methyl-3-(thiophen-2-yl)propan-1-amine]
> 1000 nM | 500 to 3000 nM | CNCCC(c1cccs1)N1CCc2ccncc21 (centres unmarked) [Example 2, 3-(2,3-Dihydro-1H-pyrrolo[2,3-c]pyridin-1-yl)-N-methyl-3-(thiophen-2-yl)propan-1-amine]
500 to 1000 nM | 500 to 3000 nM | CNCCC(c1cccs1)N1CCc2ncccc21 (centres unmarked) [Example 3, 3-(2,3-Dihydro-1H-pyrrolo[3,2-b]pyridin-1-yl)-N-methyl-3-(thiophen-2-yl)propan-1-amine]
100 to 500 nM | ≥ 3000 nM | CNCCC(c1cccs1)N1CCCc2ccccc21 (centres unmarked) [Example 4, 3-(3,4-Dihydroquinolin-1(2H)-yl)-N-methyl-3-(thiophen-2-yl)propan-1-amine]
> 1000 nM | 100 to 500 nM | CNCCC(c1cccs1)N1CCCc2ncccc21 (centres unmarked) [Example 5, 3-(3,4-Dihydro-1,5-naphthyridin-1(2H)-yl)-N-methyl-3-(thiophen-2-yl)propan-1-amine]
500 to 1000 nM | 500 to 3000 nM | CNCCC(c1ccc(F)s1)N1CCc2ncccc21 (centres unmarked) [Example 6, 3-(2,3-Dihydro-1H-pyrrolo[3,2-b]pyridin-1-yl)-3-(5-fluorothiophen-2-yl)-N-methylpropan-1-amine]
500 to 1000 nM | ≥ 3000 nM | CNCCC(c1ccccc1)N1CCc2ncccc21 (centres unmarked) [Example 7, 3-(2,3-Dihydro-1H-pyrrolo[3,2-b]pyridin-1-yl)-N-methyl-3-phenylpropan-1-amine]
> 1000 nM | 100 to 500 nM | CCNCCC(c1cccs1)N1CCc2ncccc21 (centres unmarked) [Example 8, 3-(2,3-Dihydro-1H-pyrrolo[3,2-b]pyridin-1-yl)-N-ethyl-3-(thiophen-2-yl)propan-1-amine]
100 to 500 nM | 100 to 500 nM | CNCCC(c1ccsc1)N1CCc2ncccc21 (centres unmarked) [Example 10, 3-(2,3-Dihydro-1H-pyrrolo[3,2-b]pyridin-1-yl)-N-methyl-3-(thiophen-3-yl)propan-1-amine]
500 to 1000 nM | 100 to 500 nM | CNCCC(c1cccs1)N1CCc2nc(C)ccc21 (centres unmarked) [Example 11, N-methyl-3-(5-methyl-2,3-dihydro-1H-pyrrolo[3,2-b]pyridin-1-yl)-3-(thiophen-2-yl)propan-1-amine]
500 to 1000 nM | 100 to 500 nM | CNCCC(c1cccs1)N1CC(C)(C)c2ncccc21 (centres unmarked) [Example 12, 3-(3,3-Dimethyl-2,3-dihydro-1H-pyrrolo[3,2-b]pyridin-1-yl)-N-methyl-3-(thiophen-2-yl)propan-1-amine]

Ki [1] | Ki [2] | Structure (SMILES)
500 to 1000 nM | 500 to 3000 nM | CNCCC(c1ccsc1)N1CC(C)(C)c2ncccc21 (centres unmarked) [Example 13, 3-(3,3-Dimethyl-2,3-dihydro-1H-pyrrolo[3,2-b]pyridin-1-yl)-N-methyl-3-(thiophen-3-yl)propan-1-amine]
500 to 1000 nM | 100 to 500 nM | CNCCC(c1ccsc1)N1CCc2ncc(C)cc21 (centres unmarked) [Example 14, N-methyl-3-(6-methyl-2,3-dihydro-1H-pyrrolo[3,2-b]pyridin-1-yl)-3-(thiophen-3-yl)propan-1-amine]
> 1000 nM | ≥ 3000 nM | CN(C)CCC(c1cccs1)N1CCc2ncccc21 (centres unmarked) [Example 15, 3-(2,3-Dihydro-1H-pyrrolo[3,2-b]pyridin-1-yl)-N,N-dimethyl-3-(thiophen-2-yl)propan-1-amine]
100 to 500 nM | 100 to 500 nM | CNCC[C@@H](c1cccs1)N1CCc2ncccc21 [Example 16, (S)-3-(2,3-Dihydro-1H-pyrrolo[3,2-b]pyridin-1-yl)-N-methyl-3-(thiophen-2-yl)propan-1-amine]
100 to 500 nM | 500 to 3000 nM | CNCC[C@H](c1cccs1)N1CCc2ncccc21 [Example 17, (R)-3-(2,3-dihydro-1H-pyrrolo[3,2-b]pyridin-1-yl)-N-methyl-3-(thiophen-2-yl)propan-1-amine]
500 to 1000 nM | 500 to 3000 nM | CNCC[C@H](c1ccc(F)s1)N1CCc2ncccc21 [Example 18, (R)-3-(2,3-Dihydro-1H-pyrrolo[3,2-b]pyridin-1-yl)-3-(5-fluorothiophen-2-yl)-N-methylpropan-1-amine]
500 to 1000 nM | 100 to 500 nM | CNCC[C@@H](c1ccc(F)s1)N1CCc2ncccc21 [Example 19, (S)-3-(2,3-dihydro-1H-pyrrolo[3,2-b]pyridin-1-yl)-3-(5-fluorothiophen-2-yl)-N-methylpropan-1-amine]
> 1000 nM | 100 to 500 nM | CNCC[C@H](c1cccs1)N1CC(C)(C)c2ncccc21 [Example 20, (R)-3-(3,3-Dimethyl-2,3-dihydro-1H-pyrrolo[3,2-b]pyridin-1-yl)-N-methyl-3-(thiophen-2-yl)propan-1-amine]
100 to 500 nM | 500 to 3000 nM | CNCC[C@@H](c1cccs1)N1CC(C)(C)c2ncccc21 [Example 21, (S)-3-(3,3-dimethyl-2,3-dihydro-1H-pyrrolo[3,2-b]pyridin-1-yl)-N-methyl-3-(thiophen-2-yl)propan-1-amine]
> 1000 nM | 500 to 3000 nM | CNCC[C@H](c1ccsc1)N1CCc2ncccc21 [Example 22, (R)-3-(2,3-Dihydro-1H-pyrrolo[3,2-b]pyridin-1-yl)-N-methyl-3-(thiophen-3-yl)propan-1-amine]
100 to 500 nM | 100 to 500 nM | CNCC[C@@H](c1ccsc1)N1CCc2ncccc21 [Example 23, (S)-3-(2,3-Dihydro-1H-pyrrolo[3,2-b]pyridin-1-yl)-N-methyl-3-(thiophen-3-yl)propan-1-amine]
> 1000 nM | 100 to 500 nM | CNCC[C@H](c1ccsc1)N1CC(C)(C)c2ncccc21 [Example 24, (R)-3-(3,3-Dimethyl-2,3-dihydro-1H-pyrrolo[3,2-b]pyridin-1-yl)-N-methyl-3-(thiophen-3-yl)propan-1-amine]
100 to 500 nM | 500 to 3000 nM | CNCC[C@@H](c1ccsc1)N1CC(C)(C)c2ncccc21 [Example 25, (S)-3-(3,3-Dimethyl-2,3-dihydro-1H-pyrrolo[3,2-b]pyridin-1-yl)-N-methyl-3-(thiophen-3-yl)propan-1-amine]
– | < 100 nM | CCNCCC(c1cccs1)N1CC(C)(C)c2ncc(C#N)cc21 (centres unmarked) [Example 101, 1-(3-(Ethylamino)-1-(thiophen-2-yl)propyl)-3,3-dimethyl-2,3-dihydro-1H-pyrrolo[3,2-b]pyridine-6-carbonitrile]
– | < 100 nM | CNCC[C@@H](c1cccs1)N1CC(C)(C)c2ncc(C#N)cc21 [Example 115, (S)-3,3-Dimethyl-1-(3-(methylamino)-1-(thiophen-2-yl)propyl)-2,3-dihydro-1H-pyrrolo[3,2-b]pyridine-6-carbonitrile]
– | 500 to 3000 nM | CNCC[C@H](c1cccs1)N1CC(C)(C)c2ncc(C#N)cc21 [Example 116, (R)-3,3-dimethyl-1-(3-(methylamino)-1-(thiophen-2-yl)propyl)-2,3-dihydro-1H-pyrrolo[3,2-b]pyridine-6-carbonitrile]

Structure (SMILES) | Ki [1] | Ki [2]
NCCC(c1cccs1)N1CCc2ncccc21 (centres unmarked) [Example 9, 3-(2,3-Dihydro-1H-pyrrolo[3,2-b]pyridin-1-yl)-3-(thiophen-2-yl)propan-1-amine] | > 1000 nM | ≥ 3000 nM
